# Measurements published in patent publication US20220378707A1, “1-(((2S,3S,4S)-3-ETHYL-4-FLUORO-5-OXOPYRROLIDIN-2-YL)METHOXY)-7-METHOXYISOQUINOLINE-6-CARBOXAMIDE COMBINATIONS AND ORAL DOSAGE FORMS” (Pfizer Inc., priority 2019, published 2022).
# “Also recorded” adds a separate entry of the source.
# Assays:
# [1] = system: HUVEC+(IL-1β, TNFα and IFNγ); experiment: BioMAP 3C system; format: cell-based, human; details: agent alone; PF-06650833 19, 56, 170, 500 nM; tofacitinib 37, 110, 330, 1000 nM
# Text: (§1) The BioMAP systems consist of human primary cell-based systems designed to model different aspects of the human body in an in vitro format. The 12 systems tested characterized the test compounds across a broad set of systems modeling various human disease states. BioMAP systems were constructed with one or more primary cell types from healthy human donors, with stimuli (such as cytokines or growth factors) added to capture relevant signaling networks that naturally occur in human tissue or pathological conditions. Vascular biology was modeled in both a Th1 (3C system) and a Th2 (4H system) inflammatory environment, as well as in a Th1 inflammatory state specific to arterial smooth muscle cells (CASM3C system). […]
# (§2) Systems were derived from either single cell types or co-culture systems. […] Test agents were prepared in DMSO (final concentration <0.1%) and were added 1 hour before stimulation, and remained in culture for 24 hours or as otherwise indicated (48-hrs, MyoF system; 72-hrs, BT system (soluble readouts); 168-hrs, BT system (secreted IgG)). […] Soluble factors from supernatants were quantified using either HTRF® detection, bead-based multiplex immunoassay or capture ELISA. Overt adverse effects of test agents on cell proliferation and viability (cytotoxicity) were detected by sulforhodamine B (SRB) staining, for adherent cells, and alamarBlue® reduction for cells in suspension.
# [2] = system: CD19+B cells and PBMC+(α-IgM and TCR ligands); experiment: BioMAP BT system; format: cell-based, human; details: for Inhibition of biomarker readouts in the BT system / Increased biomarker readouts in the BT system: T cell dependent B cell activation; for Inhibition of biomarker readouts in the BT system: concentrations of FIGS. 12-14; for Increased biomarker readouts in the BT system: tofacitinib 37-1000 nM
# Text: (§3) The BioMAP systems consist of human primary cell-based systems designed to model different aspects of the human body in an in vitro format. The 12 systems tested characterized the test compounds across a broad set of systems modeling various human disease states. BioMAP systems were constructed with one or more primary cell types from healthy human donors, with stimuli (such as cytokines or growth factors) added to capture relevant signaling networks that naturally occur in human tissue or pathological conditions. Vascular biology was modeled in both a Th1 (3C system) and a Th2 (4H system) inflammatory environment, as well as in a Th1 inflammatory state specific to arterial smooth muscle cells (CASM3C system). Additional systems recapitulated aspects of the systemic immune response that included monocyte-driven Th1 inflammation (LPS system) or T cell stimulation (SAg system), chronic Th1 inflammation driven by macrophage activation (IMphg system) and the T cell-dependent activation of B cells that occurs in germinal centers (BT system). The BE3C system (Th1) and the BF4T system (Th2) represented airway inflammation of the lung, while the MyoF system modeled myofibroblast-lung tissue remodeling. Lastly, skin biology was addressed in the KF3CT system modeled Th1 cutaneous inflammation and the HDF3CGF system modeled wound healing.
# (§4) All cells were from a pool of multiple donors (n=2-6), commercially purchased and handled according to the recommendations of the manufacturers. Human blood derived CD14+ monocytes were differentiated into macrophages in vitro before being added to the IMphg system. Abbreviations were used as follows: human umbilical vein endothelial cells (HUVEC), peripheral blood mononuclear cells (PBMC), human neonatal dermal fibroblasts (HDFn), B cell receptor (BCR), T cell receptor (TCR) and toll-like receptor (TLR). Cell types and stimuli used in each system were as follows:
# (§5) 3C system [HUVEC+(IL-1β, TNFα and IFNγ)]; 4H system [HUVEC+(IL-4 and histamine)]; LPS system [PBMC and HUVEC+LPS (TLR4 ligand)]; SAg system [PBMC and HUVEC+T cell receptor (TCR) ligands]; BT system [CD19+B cells and PBMC+(α-IgM and TCR ligands)]; BF4T system [bronchial epithelial cells and HDFn+(TNFα and IL-4)]; BE3C system [bronchial epithelial cells+(IL-1p, TNFα and IFNγ)]; CASM3C system [coronary artery smooth muscle cells+(IL-1p, TNFα and IFNγ)]; HDF3CGF system [HDFn+(IL-1β, TNFα, IFNγ, EGF, bFGF and PDGF-BB)]; KF3CT system [keratinocytes and HDFn+(IL-1β, TNFα and IFNγ)]; MyoF system [differentiated lung myofibroblasts+(TNFα and TGFβ)]; and IMphg system [HUVEC and M1 macrophages+Zymosan (TLR2 ligand)].
# (§6) Systems were derived from either single cell types or co-culture systems. Adherent cell types were cultured in 96 or 384-well plates until confluence, followed by the addition of PBMC (SAg and LPS systems). The BT system consisted of CD19+B cells co-cultured with PBMC and stimulated with a BCR activator and low levels of TCR stimulation. Test agents were prepared in DMSO (final concentration <0.1%) and were added 1 hour before stimulation, and remained in culture for 24 hours or as otherwise indicated (48-hrs, MyoF system; 72-hrs, BT system (soluble readouts); 168-hrs, BT system (secreted IgG)). Each plate contained drug controls (e.g., legacy control test agent colchicine at 1.1 μM), negative controls (e.g., non-stimulated conditions) and vehicle controls (e.g., 0.1% DMSO) appropriate for each system. Direct ELISA was used to measure biomarker levels of cell-associated and cell membrane targets. Soluble factors from supernatants were quantified using either HTRF® detection, bead-based multiplex immunoassay or capture ELISA. Overt adverse effects of test agents on cell proliferation and viability (cytotoxicity) were detected by sulforhodamine B (SRB) staining, for adherent cells, and alamarBlue® reduction for cells in suspension. […]
# [3] = system: HDFn+(IL-1β, TNFα, IFNγ, EGF, bFGF and PDGF-BB); experiment: BioMAP HDF3CGF system; format: cell-based, human; details: for Inhibition of biomarker readouts in the HDF3CGF system: wound healing, Th1-type inflammation, concentrations of FIGS. 12-16
# Text: as §3, §4, §5
# as §2, with “systems. Adherent cell types were cultured in 96 or 384-well plates until confluence, followed by the addition of PBMC (SAg and LPS systems).” for “systems.”
# [4] = system: human primary cell-based systems; experiment: BioMAP panel of 12 systems; details: for Number of annotated readouts with activity / Overt cytotoxicity on primary human cell types: 12 tissue and disease models; for Immunomodulatory activities: Decreased Activity / Inflammation-related activities: Decreased Activity: PF-06651600 200-5400 nM
# Text: as §3, §4, §5, §6
# [5] = system: bronchial epithelial cells and HDFn+(TNFα and IL-4); experiment: BioMAP BF4T system; format: cell-based, human; details: Th2 airway inflammation; tofacitinib 37-1000 nM
# Text: as §1, §2
# [6] = system: HUVEC+(IL-4 and histamine); experiment: BioMAP 4H system; format: cell-based, human; details: Th2 vascular inflammation, tofacitinib 37-1000 nM
# Text: as §1, §2
# [7] = PF-06650833 19-500 nM, tofacitinib 37-1000 nM
# [8] = BioMAP profile, PF-06650833 19-500 nM, tofacitinib 37-1000 nM
# [9] = BioMAP profile, tofacitinib 37-1000 nM
smiles,measurement,setting,value
"CC[C@@H]1[C@H](F)C(=O)N[C@@H]1COc1nccc2cc(C(N)=O)c(OC)cc12 [PF-06650833, 1-(((2S,3S,4S)-3-Ethyl-4-fluoro-5-oxopyrrolidin-2-yl)methoxy)-7-methoxyisoquinoline-6-carboxamide]",Activity in the 3C system,[1],no activity
same,Inhibition of biomarker readouts in the BT system,"[2]; listed as 1-(((2S,3S,4S)-3-Ethyl-4-fluoro-5-oxopyrrolidin-2-yl)methoxy)-7-methoxyisoquinol",little effect; also recorded: modest inhibition of IL-6 and sIL-17F
same,Inhibition of biomarker readouts in the BT system,"[2]; listed as 1-(((2S,3S,4S)-3-ethyl-4-fluoro-5-oxopyrrolidin-2-yl)methoxy)-7-methoxyisoquinol",sIL-17F and sTNFα
same,"MIG, Log10 molar ratio in the HDF3CGF system",[3]; PF-06650833 at 170 nM alone,−0.04121
same,Inhibition of biomarker readouts in the HDF3CGF system,[3],"modest inhibition VCAM-1, Col-III, and TIMP2"
same,Number of annotated readouts with activity,[4]; [7],14
same,Overt cytotoxicity on primary human cell types,[4]; [7],no evidence of overt cytotoxicity
same,Immunomodulatory activities: Decreased Activity,[4]; [8],"decreased CD40, CD69, M-CSF, secreted IL-17F; also recorded: CD40, CD69, M-CSF, *sIL-17F"
same,Inflammation-related activities: Decreased Activity,[4]; [8],"decreased E-selectin, MCP-1, VCAM-1, IL-6, IL-8, IL-1α, secreted TNFα, secreted PGE2; also recorded: MCP-1, VCAM-1, E-selectin, IL-6, IL-8, IL-1α, *sTNFα, *sPGE2"
same,Additional activities in the BioMAP systems,[4]; PF-06650833 19-500 nM,modest effects in BT and CASM3C systems and concentration-related decreases in secreted IL-17F and inhibition of secreted TNFα and IL-6 at the higher two concentrations only
same,Antiproliferative effect on primary cell types,[4]; [7],no antiproliferative effect
"C[C@@H]1CCN(C(=O)CC#N)C[C@@H]1N(C)c1ncnc2[nH]ccc12 [tofacitinib, 3-((3R,4R)-4-Methyl-3-(methyl(7H-pyrrolo[2,3-d]pyrimidin-4-yl)amino)piperidin-1-yl)-3-oxopropanenitrile]",Activity in the 3C system,[1],no activity
same,Inhibition of biomarker readouts in the BT system,[2],"sIgG, sIL-17F, sIL-2, IL-6, and sTNFα; also recorded: strongly inhibited responses"
same,Inhibition of biomarker readouts in the BT system,[2]; listed as Tofacitinib,"active over all tested concentrations; also recorded: sIgG, sIL-17F, sIL-6, and sTNFα"
same,Increased biomarker readouts in the BT system,[2],increase in secreted IL-2
same,Increased biomarker readouts in the BT system,[2]; listed as Tofacitinib,sIL-2
same,B cell proliferation in the BT system,[2]; concentrations of FIGS. 13-14,B cell anti-proliferative activity
same,Increased biomarker readouts in the BF4T system,[5],MMP9
same,Inhibition of biomarker readouts in the BF4T system,[5],"active over all tested concentrations; also recorded: Eot3, and VCAM-1"
same,Inhibition of biomarker readouts in the 4H system,[6],MCP-1 and Eto3 and VCAM-1 and P-selectin
same,Inhibition of biomarker readouts in the 4H system,[6]; listed as Tofacitinib,"active over all tested concentrations; also recorded: MCP-1, Eot3, VCAM-1, P-selectin"
same,Inhibition of biomarker readouts in the HDF3CGF system,[3],ITAC and VCAM-1
same,Inhibition of biomarker readouts in the HDF3CGF system,[3]; listed as Tofacitinib,VCAM-1 and ITAC
same,Number of annotated readouts with activity,[4]; [7],21
same,Overt cytotoxicity on primary human cell types,[4]; [7],no evidence of overt cytotoxicity
same,Immunomodulatory activities: Decreased Activity,[4]; [8],"decreased secreted IgG, CD38, secreted IL-6, CD69, secreted IL-17F; also recorded: *sIL-6, *sIL-17F; also recorded: CD38, CD69, *sIgG,"
same,Inflammation-related activities: Decreased Activity,[4]; [8],"decreased Eotaxin 3, MCP-1, VCAM-1, I-TAC, MIG, P-selectin; also recorded: MCP-1, Eot3,; also recorded: ITAC, MIG"
same,Immunomodulatory activities: Increased Activity,[4]; [9],increased secreted IL-2; also recorded: *sIL-2
same,Inflammation-related activities: Increased Activity,[4]; [9],"increased IL-1α, secreted PGE2; also recorded: *sPGE2"
same,Inflammation-related activities: Modulated Activity,[4]; [9],modulated secreted TNFα; also recorded: *sTNFα
same,Tissue remodeling activities: Increased Activity,[4]; [9],increased MMP-9 and MMP9
same,Antiproliferative effect on primary cell types,[4]; [7],selectively antiproliferative to T cells
same,"Cytostatic effect on B cells, vascular cell types or fibroblasts",[4]; tofacitinib 37-1000 nM,no cytostatic effect
